Assay results from US9034871B2, “Compounds for Alzheimer's disease” (priority 2004, dated 2015).
Read-outs that look alike come from different tables or passages of the source. Values belong to the molecule of their own block, whether it stands above or below them.

Key:
[1] = system: Aβ42; experiment: Detection of secreted Aβ42 with Biosource ELISA kit in H4 cells expressing APP695; type: cell-based
Experimental: The present invention provides compositions and methods for lowering Aβ42 levels. To test whether compounds and compositions are capable of modulating Aβ levels, a sandwich enzyme-linked immunosorbent assay (ELISA) is employed to measure secreted Aβ (Aβ42 and/or Aβ40) levels. In this example, H4 cells expressing wide type APP695 are seeded at 200,000 cells/per well in 6 well plates, and incubated at 37 degree C. with 5% CO2 overnight. Cells are treated with 1.5 ml medium containing vehicle (DMSO) or a test compound at 1.25 μM, 2.5 μM, 5.0 μM and 10.0 μM (as well as other concentration if desirable) concentration for 24 hours or 48 hours. The supernatant from treated cells is collected into eppendorf tubes and frozen at −80 degree C. for future analysis.
The amyloid peptide standard is reconstituted and frozen samples are thawed. The samples and standards are diluted with appropriate diluents and the plate is washed 4 times with Working Wash Buffer and patted dry on a paper towel. 100 μL per well of peptide standards, controls, and dilutions of samples to be analyzed is added. The plate is incubated for 2 hours while shaking on an orbital plate shaker at RT. The plate is then washed 4 times with Working Wash Buffer and patted dry on a paper towel. Detection Antibody Solution is poured into a reservoir and 100 μL /well of Detection Antibody Solution is immediately added to the plate. The plate is incubated at RT for 2 hours while shaking and then washed four times with Working Wash Buffer and patted dry on a paper towel. Secondary Antibody Solution is then poured into a reservoir and 100 μL /well of Secondary Antibody Solution is immediately added to the plate. The plate is incubated at RT for 2 hours with shaking, washed 5 times with Working Wash Buffer, and patted dry on a paper towel.
100 μL of stabilized chromogen is added to each well and the liquid in the wells begins to turn blue. The plate is incubated for 30 minutes at room temperature and in the dark. 100 μL of stop solution is added to each well and the plate is tapped gently to mix resulting in a change of solution color from blue to yellow. The absorbance of each well is read at 450 nm having blanked the plate reader against a chromogen blank composed of 100 μL each of stabilized chromogen and stop solution. The plate is read within 2 hours of adding the stop solution. The absorbance of the standards is plotted against the standard concentration and the concentrations of unknown samples and controls are calculated.
These compounds were synthesized via the indicated synthetic route. Ab42 IC50 (uM) refers to IC50 value for Ab42 lowering in e.g., the assay described in Example 6.

[2] = clinical trials in AD patients; cited from earlier work
[3] = large prevention trial, patients having mild cognitive impairment; placebo 4.5%; cited from earlier work
[4] = cell based assay described in Example 6, read-out: Ab42 lowering IC50
[5] = Ab42 lowering, cell based assay, read-out: Ab42 IC50

IC50 [1, 4]: 10 µM
SMILES: c1ccc(-c2cc(-c3cc4c(n3-c3cccc(-c5nn[nH]n5)c3)CCc3ccccc3-4)on2)cc1 [Compound 138, 2-(3-phenylisoxazol-5-yl)-3-[3-(2H-tetrazol-5-yl)-phenyl]-4,5-dihydro-3H-benzo[e]indole]

IC50 [1, 4]: 2 µM
SMILES: O=C(O)c1cccc(-n2c(-c3cc(-c4ccccc4)no3)cc3c2CCc2ccccc2-3)c1 [Compound 139]

SMILES: COc1ccc2cc([C@H](C)C(=O)O)ccc2c1 [Naproxen]
efficacy for treating AD [2]: failed to show efficacy

IC50 [1, 5]: 9.6 µM
SMILES: c1ccc(-c2cc(-c3cc4c(n3-c3cccc(-c5nn[nH]n5)c3)CCc3ccccc3-4)on2)cc1 [drawing 1708, 2-(3-phenylisoxazol-5-yl)-3-[3-(2H-tetrazol-5-yl)-phenyl]-4,5-dihydro-3H-benzo[e]indole]

IC50 [1, 5]: 2.2 µM
SMILES: O=C(O)c1cccc(-n2c(-c3cc(-c4ccccc4)no3)cc3c2CCc2ccccc2-3)c1 [drawing 1709]

IC50 [1, 5]: 24 µM
SMILES: c1ccc(-c2cc3c(n2-c2cccc(-c4nn[nH]n4)c2)CCc2ccccc2-3)cc1 [drawing 1720, 2-phenyl-3-[3-(2H-tetrazol-5-yl)-phenyl]-4,5-dihydro-3H-benzo[e]indole]

SMILES: CS(=O)(=O)c1ccc(C2=C(c3ccccc3)C(=O)OC2)cc1 [rofecoxib]
efficacy for treating AD [2]: failed to show efficacy
patients who developed AD [3]: 6.4%

IC50 [1, 5]: 6.5 µM
SMILES: CCC(C)(C)C1CCc2c(cc(-c3ccccc3)n2-c2nc(CC(=O)O)cs2)C1 (stereo not drawn) [{2-[5-(1,1-dimethylpropyl)-2-phenyl-4,5,6,7-tetrahydroindol-1-yl]-thiazol-4-yl} acetic acid]
